Test results from patent US7517652B2, “Methods of diagnosing tumors using the G-protein coupled receptor (GPCR), RAI-3” (Bristol-Myers Squibb Company, priority 2002, dated 2009).
“Also recorded” adds a separate entry of the source. d = 2'-deoxy (DNA); r = 2'-OH (RNA)

How the values were obtained:
muc5AC protein = assay: muc5AC ELISA of supernatants of H292 cells exposed to cigarette smoke-bubbled media; type: cell-based, human; settings: transfected H292 cells, CS-10 for 72 hours, triplicate; listed as RAI-3 siRNA 1864+1865
Protocol: At 24 hours post siRNA transfection, the media was changed to serum-free RPMI media containing 20 mM Glutamine and 1% Penicillin-Streptomycin and incubated at 37° C., 5% CO2, for 24 hours. At 48 hours post transfection, the serum-free RPMI media was removed from the cells and replaced with 1.0 ml of cigarette smoke-bubbled medium (i.e., CS-10, the equivalent of 10 cigarettes per 500 ml of cell culture medium) for 72 hours (96 hours post-transfection) or control. At 72 hours (96 hours post-transfection), 100 ul×3 of supernatent from each well in the 24-well plate was transferred to 96-well plate for ELISA analysis.
A muc5AC coating antibody, Gastric Mucin Ab-1 45M1 (NeoMarkers, Fremont, Calif.) was diluted 1:1000 to 1 ug/ml final in 50 mM NaHCO3 pH 9 and coated onto a standard 96-well ELISA plate overnight at room temperature with rotating. The next day the plate was washed three times with 1×PBS/0.05% Tween 20 (PBS-T) and blocked with 200 ul of blocking buffer, 1×PBS/1% BSA final (30% solution, Sigma-Aldrich Co. Saint Louis, Mo.). […] The next day the wells were washed three times with PBS-T. Muc5AC protein in the supernatent was detected with Peroxidase-Labeled Lectin from Glycine Max (Sigma-Aldrich, St. Louis, Mo.) diluted to 1ug/ml in 1×PBS/1% BSA final. […] Color reactions were stopped with 100 μl/well 1 N. H2SO4 and the absorbency at 450 nm-650 nm was measured.

RAI-3 mRNA = RAI-3 mRNA by real-time PCR after treatment of cells with ATRA; type: cell-based, human; settings: 24 hours
Protocol: 1×10^6 cells of each of the HEK 293, H292 and BEAS-2B cell lines were seeded into two (replicate) 100 mM cell culture dishes containing 20 ml of RPMI complete medium which contained L-glutamine, 10% fetal bovine serum and 1% Penicillin-Streptomycin (Gibco/BRL). To one 100 mM dish, 0.2 μl of DMSO were added. To the other 100 mM dish, 0.2 μl of 10 mM ATRA (Sigma R-2625, St. […] After 24 hours at 37° C. and 5% CO2, cells were lysed with Buffer RLT (Qiagen, Hilden, Germany) and total RNA was harvested pursuant to the Rneasy Midi Kit protocol (Qiagen, Hilden, Germany). RAI-3 messenger RNA levels were measured by Real-time PCR as described below in Example 1(N).
SYBR Green PCR amplification was performed on an ABI PRISM 7700 Sequence Detection System (PE Applied Biosystems, Foster City, Calif.), and the reaction was carried out using SYBR Green PCR Core reagents (PE Applied Biosystems). Real time PCR was carried out at 40 cycles with the following parameters: 95° C. for 15 seconds and 60° C. for 60 seconds, with a pre-incubation period of 50° C. for 2 minutes, followed by 95° C. for 10 minutes. All amplification was normalized to β-actin gene amplification in the linear portion of the amplification curves. Data were then expressed as a fold increase over a reference tissue or cell type.

Compound	average ELISA signal, muc5AC protein in the supernatant (muc5AC protein)	RAI-3 mRNA levels (RAI-3 mRNA; H292 cells (high basal level of RAI-3 expression))	RAI-3 mRNA levels (RAI-3 mRNA; HEK 293, BEAS-2B and H292 cells, ATRA 1 μM)
RAI-3 siRNA reagent 1864+1865: annealed double stranded siRNA r(GGUGCAGGACUCCAACAGG)d(TT) and r(CCUGUUGGAGUCCUGCACC)d(TT), SEQ ID NO:94 and 95 (chain 1 GGUGCAGGACUCCAACAGGTT; chain 2 CCUGUUGGAGUCCUGCACCTT; sugars from the 5' end r19 d2, backbone not given here)	significantly reduced		
CC1=C(/C=C/C(C)=C/C=C/C(C)=C/C(=O)O)C(C)(C)CCC1 [ATRA, all-trans retinoic acid]		modest, but measurable increase	increase; also recorded: induced
